Reference: BindingDB's records for patent US9145380 (Astrazeneca, 2015)

Target: T1, Prostaglandin E synthase (Homo sapiens, UniProt O14684)
T1 sequence (O14684 whole entry): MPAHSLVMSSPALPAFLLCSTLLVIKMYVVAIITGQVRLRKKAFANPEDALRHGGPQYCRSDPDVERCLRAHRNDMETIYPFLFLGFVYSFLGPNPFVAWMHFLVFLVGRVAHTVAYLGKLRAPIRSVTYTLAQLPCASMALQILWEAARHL
Assay: Biochemical Assay
Conditions: pH 6.8
Procedure: A solution of test compound was added to a diluted microsome preparation containing human mPGES-1 and pre-incubated for 15 minutes in potassium phosphate buffer pH 6.8 with cofactor glutathione (GSH). Corresponding solutions without test compound were used as positive controls, and corresponding solutions without test compound and without microsomes were used as negative controls. The enzymatic reaction was then started by addition of the substrate PGH2 in an organic solution (dry acetonitrile).The typical reaction conditions of the enzymatic reaction were thus: Test compound: ranging from 60 uM to 0.002 uM, or zero in positive and negative controls; potassium phosphate buffer pH 6.8: 50 mM; GSH: 2.5 mM; mPGES-1-containing microsomes: 2 ug/mL (sample and positive controls) or 0 ug/mL (negative control); PGH2: 10.8 uM; Acetonitrile: 7.7% (v/v); DMSO: 0.6% (v/v). The reaction was stopped after one minute by adding an acidic solution (pH 1.9) of ferric chloride.

COc1ccc(Br)cc1/C=C/S(=O)(=O)Nc1ccc(C#CC(C)(C)O)cc1S(N)(=O)=O [US9145380, 179]
IC50: 6.2 µM
